Assay results as given in patent US20070117743A1, “New antitumoral compounds” (priority 2003, published 2007).
Read-outs that look alike come from different tables or passages of the source. Where a SMILES comes first, the peptide text is derived from it. Bridges are numbered along the chain shown (N, C = ends). [ ]: non-standard residue; d: D form. The star is where a group is joined. d(aIle) = CC[C@H](C)[C@@H](N)C(=O)O; d(aThr) = C[C@@H](O)[C@@H](N)C(=O)O; Hexanoyl(5-Me) = CC(C)CCCC(=O)*; Orn = NCCC[C@H](N)C(=O)O; Dhb = C/C=C(\N)C(=O)O

What was measured:
Type in all cases: cell-based, human
IGROV-ET = assay: SRB colorimetric assay of cell growth and viability, IGROV-ET; details: 48 hours exposure; for CC50: read-out: LC50 IGROV-ET
LNCaP = assay: SRB colorimetric assay of cell growth and viability, LNCaP; details: 48 hours exposure; for GI50: read-out: GI50 LN-caP; for CC50: read-out: LC50 LN-caP
HT-29 = assay: SRB colorimetric assay of cell growth and viability, HT-29; details: 48 hours exposure; for GI50: read-out: GI50 HT-29; for CC50: read-out: LC50 HT-29
HeLa = assay: SRB colorimetric assay of cell growth and viability, HeLa; details: 48 hours exposure; for CC50: read-out: LC50 HELA
PANC-1 = assay: SRB colorimetric assay of cell growth and viability, PANC-1; details: 48 hours exposure; for CC50: read-out: LC50 PANC-1
HeLa-APL = assay: SRB colorimetric assay of cell growth and viability, HeLa-APL; details: 48 hours exposure; for CC50: read-out: LC50 HELA-APL
SK-BR-3 = assay: SRB colorimetric assay of cell growth and viability, SK-BR-3; details: 48 hours exposure
LoVo-Dox = assay: SRB colorimetric assay of cell growth and viability, LoVo-Dox; details: 48 hours exposure; for CC50: read-out: LC50 LOVO-DOX
Summary of the method: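 Tumor cells are continuously exposed to sample for 48 hours, with vehicle DMSO:EtOH:PBS (0.5:0.5:99), after an 18-hour drug-free attachment period. Bound SRB, measured at 490 nm, reflects cell mass; GI, TGI and LC are derived from triplicate means.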

DU-145 = assay: SRB colorimetric assay of cell growth and viability, DU-145; details: 48 hours exposure
A-549 = assay: SRB colorimetric assay of cell growth and viability, A-549; details: 48 hours exposure; for GI50: read-out: GI50 A-549; for CC50: read-out: LC50 A-549
K-562 = assay: SRB colorimetric assay of cell growth and viability, K-562; details: 48 hours exposure; for CC50: read-out: LC50 K-562
IGROV-1 = assay: SRB colorimetric assay of cell growth and viability, IGROV-1; details: 48 hours exposure
SK-MEL-28 = assay: SRB colorimetric assay of cell growth and viability, SK-MEL-28; details: 48 hours exposure; for CC50: read-out: LC50 MEL-28
LoVo = assay: SRB colorimetric assay of cell growth and viability, LoVo; details: 48 hours exposure; for CC50: read-out: LC50 LOVO

## C/C=C1\NC(=O)[C@H](Cc2ccccc2)NC(=O)[C@@H](C(C)C)NC(=O)[C@@H]([C@@H](C)CC)NC(=O)[C@H](NC(=O)[C@H](NC(=O)[C@H](CCCN)NC(=O)[C@H]2CCCN2C(=O)[C@H](NC(=O)[C@@H](NC(=O)[C@@H](NC(=O)[C@H](NC(=O)CC[C@@H](C)CC)C(C)C)[C@@H](C)OC(=O)C(F)(F)F)C(C)C)C(C)C)[C@@H](C)CC)[C@@H](C)OC(=O)[C@H](C(C)C)NC1=O [Compound 94, [Thr(OTfa)^12, 4(S)MeHex^14]-Kahalalide F]
IGROV-ET; SRB
  GI50: 0.208 µM
  TGI IGROV-ET: 4.00E−07 Molar
  CC50: 1.58 µM
LNCaP; SRB
  TGI LN-caP: 4.92E−06 Molar
  GI50: 1.65 µM
  CC50: 6.35 µM
HT-29; SRB
  TGI HT-29: 3.43E−07 Molar
  GI50: 0.163 µM
  CC50: 1.14 µM
HeLa; SRB
  GI50: 0.413 µM
  TGI HELA: 1.16E−06 Molar
  CC50: 3.02 µM
PANC-1; SRB
  GI50: 2.86 µM
  TGI PANC-1: 6.35E−06 Molar
  CC50: 6.35 µM
HeLa-APL; SRB
  GI50: 0.693 µM
  TGI HELA-APL: 1.65E−06 Molar
  CC50: 3.92 µM
SK-BR-3; SRB
  GI50: 0.226 µM
  LC50: 0.625 µM
  TGI SK-BR-3: 3.75E−07 Molar
LoVo-Dox; SRB
  GI50: 0.162 µM
  TGI LOVO-DOX: 3.55E−07 Molar
  CC50: 1.32 µM
DU-145; SRB
  GI50: 0.718 µM
  LC50 (concentration causing 50% net cell kill): 3.18 µM
  TGI DU-145: 1.51E−06 Molar
A-549; SRB
  TGI A-549: 2.28E−06 Molar
  GI50: 1.12 µM
  CC50: 4.66 µM
K-562; SRB
  GI50: 1.84 µM
  TGI K-562: 3.75E−06 Molar
  CC50: 6.35 µM
IGROV-1; SRB
  GI50: 0.313 µM
  LC50 (concentration causing 50% net cell killing): 3.05 µM
  TGI IGROV: 6.11E−07 Molar
SK-MEL-28; SRB
  GI50: 0.743 µM
  TGI MEL-28: 1.50E−06 Molar
  CC50: 3.01 µM
LoVo; SRB
  GI50: 0.168 µM
  TGI LOVO: 3.26E−07 Molar
  CC50: 0.632 µM

## C/C=C1\NC(=O)[C@H](Cc2ccccc2)NC(=O)[C@@H](C(C)C)NC(=O)[C@@H]([C@@H](C)CC)NC(=O)[C@H](NC(=O)[C@H](NC(=O)[C@H](CCCN)NC(=O)[C@H]2CCCN2C(=O)[C@H](NC(=O)[C@@H](NC(=O)[C@@H](NC(=O)[C@H](NC(=O)CCCC(C)C)C(C)C)[C@@H](C)O)C(C)C)C(C)C)[C@@H](C)CC)[C@H](C)OC(=O)[C@H](C(C)C)NC1=O [Compound 2, [D-Thr^6]-KF]
IGROV-ET
  GI50: 1.6 µM
  TGI IGROV-ET: 3.80E−06 Molar
  CC50: ≥ 6.77 µM
LNCaP
  TGI LN-caP: 6.77E−06 Molar
  GI50: 2.13 µM
  CC50: ≥ 6.77 µM
HT-29
  TGI HT-29: 6.77E−06 Molar
  GI50: ≥ 6.77 µM
  CC50: ≥ 6.77 µM
HeLa
  GI50: ≥ 6.77 µM
  TGI HELA: 6.77E−06 Molar
  CC50: ≥ 6.77 µM
PANC-1
  GI50: ≥ 6.77 µM
  TGI PANC-1: 6.77E−06 Molar
  CC50: ≥ 6.77 µM
HeLa-APL
  GI50: ≥ 6.77 µM
  TGI HELA-APL: 6.77E−06 Molar
  CC50: ≥ 6.77 µM
SK-BR-3
  GI50: 4.47 µM
  LC50: ≥ 6.77 µM
  TGI SK-BR-3: 6.77E−06 Molar
LoVo-Dox
  GI50: 3.06 µM
  TGI LOVO-DOX: 6.77E−06 Molar
  CC50: ≥ 6.77 µM
DU-145
  GI50: 5.29 µM
  LC50 (concentration causing 50% net cell kill): ≥ 6.77 µM
  TGI DU-145: 6.77E−06 Molar
A-549
  TGI A-549: 6.77E−06 Molar
  GI50: ≥ 6.77 µM
  CC50: ≥ 6.77 µM
K-562
  GI50: ≥ 6.77 µM
  TGI K-562: 6.77E−06 Molar
  CC50: ≥ 6.77 µM
IGROV-1
  GI50: 1.99 µM
  LC50 (concentration causing 50% net cell killing): ≥ 6.77 µM
  TGI IGROV: 5.33E−06 Molar
SK-MEL-28
  GI50: ≥ 6.77 µM
  TGI MEL-28: 6.77E−06 Molar
  CC50: ≥ 6.77 µM
LoVo
  GI50: ≥ 6.77 µM
  TGI LOVO: 6.77E−06 Molar
  CC50: ≥ 6.77 µM

## C/C=C1\NC(=O)[C@H](Cc2ccccc2)NC(=O)[C@@H](C(C)C)NC(=O)[C@@H]([C@@H](C)CC)NC(=O)[C@H](NC(=O)[C@H](NC(=O)[C@H](CCCN)NC(=O)[C@H]2CCCN2C(=O)[C@H](NC(=O)[C@H](CCCN)NC(=O)[C@@H](NC(=O)[C@H](NC(=O)CCCC(C)C)C(C)C)[C@@H](C)O)C(C)C)[C@@H](C)CC)[C@@H](C)OC(=O)[C@H](C(C)C)NC1=O [Compound 49, [Orn^11]-KF] ({Hexanoyl(5-Me)}-[dV]T[Orn][dV][dP][Orn][d(aIle)][d(aThr)][d(aIle)][dV]F[Dhb]V; ester 8-C)
IGROV-ET
  GI50: 1.91 µM
  TGI IGROV-ET: 5.15E−06 Molar
  CC50: 6.7 µM
LNCaP
  TGI LN-caP: 6.70E−06 Molar
  GI50: 2.2 µM
  CC50: 6.7 µM
HT-29
  TGI HT-29: 3.74E−06 Molar
  GI50: 1.58 µM
  CC50: 6.7 µM
HeLa
  GI50: 1.1 µM
  TGI HELA: 2.20E−06 Molar
  CC50: 4.4 µM
PANC-1
  GI50: 1.31 µM
  TGI PANC-1: 3.09E−06 Molar
  CC50: 6.7 µM
HeLa-APL
  GI50: 1.07 µM
  TGI HELA-APL: 2.52E−06 Molar
  CC50: 5.95 µM
SK-BR-3
  GI50: 1.94 µM
  LC50: 6.7 µM
  TGI SK-BR-3: 5.57E−06 Molar
LoVo-Dox
  GI50: 3.22 µM
  TGI LOVO-DOX: 6.70E−06 Molar
  CC50: 6.7 µM
DU-145
  GI50: 1.09 µM
  LC50 (concentration causing 50% net cell kill): 5.75 µM
  TGI DU-145: 2.50E−06 Molar
A-549
  TGI A-549: 6.70E−06 Molar
  GI50: 2.61 µM
  CC50: 6.7 µM
K-562
  GI50: 0.15 µM
  TGI K-562: 1.67E−06 Molar
  CC50: 6.7 µM
IGROV-1
  GI50: 1.27 µM
  LC50 (concentration causing 50% net cell killing): 5.97 µM
  TGI IGROV: 2.75E−06 Molar
SK-MEL-28
  GI50: 1.33 µM
  TGI MEL-28: 2.50E−06 Molar
  CC50: 4.69 µM
LoVo
  GI50: 1.47 µM
  TGI LOVO: 3.80E−06 Molar
  CC50: 6.7 µM

## C/C=C1\NC(=O)[C@H](Cc2ccccc2)NC(=O)[C@@H](C(C)C)NC(=O)[C@@H](C(C)C)NC(=O)[C@H](NC(=O)[C@H](NC(=O)[C@H](CCCN)NC(=O)[C@H]2CCCN2C(=O)[C@H](NC(=O)[C@@H](NC(=O)[C@@H](NC(=O)[C@H](NC(=O)CCCC(C)C)C(C)C)[C@@H](C)O)C(C)C)C(C)C)C(C)C)[C@@H](C)OC(=O)[C@H](C(C)C)NC1=O [Compound 12, [D-Val^5, D-Val^7]-KF] ({Hexanoyl(5-Me)}-[dV]TV[dV][dP][Orn][dV][d(aThr)][dV][dV]F[Dhb]V; ester 8-C)
IGROV-ET
  GI50: 1.79 µM
  TGI IGROV-ET: 2.97E−06 Molar
  CC50: 4.93 µM
LNCaP
  TGI LN-caP: 3.79E−08 Molar
  GI50: 2.8 µM
  CC50: 5.14 µM
HT-29
  TGI HT-29: 2.51E−06 Molar
  GI50: 1.29 µM
  CC50: 4.88 µM
HeLa
  GI50: 1.75 µM
  TGI HELA: 2.98E−06 Molar
  CC50: 5.07 µM
PANC-1
  GI50: 4.67 µM
  TGI PANC-1: 6.90E−06 Molar
  CC50: 6.9 µM
HeLa-APL
  GI50: 3.02 µM
  TGI HELA-APL: 6.01E−06 Molar
  CC50: 6.9 µM
SK-BR-3
  GI50: 1.74 µM
  LC50: 5.38 µM
  TGI SK-BR-3: 3.06E−06 Molar
LoVo-Dox
  GI50: 0.952 µM
  TGI LOVO-DOX: 1.97E−06 Molar
  CC50: 4.08 µM
DU-145
  GI50: 1.61 µM
  LC50 (concentration causing 50% net cell kill): 4.92 µM
  TGI DU-145: 2.82E−06 Molar
A-549
  TGI A-549: 6.68E−06 Molar
  GI50: 2.17 µM
  CC50: 6.9 µM
K-562
  GI50: 3.19 µM
  TGI K-562: 5.46E−06 Molar
  CC50: 6.9 µM
IGROV-1
  GI50: 1.85 µM
  LC50 (concentration causing 50% net cell killing): 4.93 µM
  TGI IGROV: 3.01E−06 Molar
SK-MEL-28
  GI50: 1.68 µM
  TGI MEL-28: 3.12E−06 Molar
  CC50: 5.78 µM
LoVo
  GI50: 1.26 µM
  TGI LOVO: 2.28E−06 Molar
  CC50: 4.13 µM
